Data as given in patent US6713077B1, “Control of shoot/foliar feeding pests with pesticide seed treatments” (Monsanto Technology, LLC, priority 1999, dated 2004).
Like-named read-outs stand apart in the source and are kept apart here.

Columns and labels:
[1] = cited from earlier work
[2] = cited from earlier work; remark: listed apart in the source
black cutworm larvae [3] = experiment: Example 2: stand reduction of corn by black cutworm, tub test; type: in vivo
Description: (§1) A lambda-cyhalothrin seed treatment formulation was prepared from the WARRIOR T insecticide and corn seed was prepared and treated as described in Example 1, except that the treatment levels were 88, 185 and 381 gm active ingredient/100 kg seed. Treated and untreated seeds were planted and cultivated as described as described in Example 1. Again, FORCE 3GR was applied either in-furrow or incorporated into a 5 inch band on the soil surface at the time of planting. The tubs were overhead irrigated until the plants were infested with black cutworm larvae.
(§2) The corn plants were infested at 12 DAP, as described in Example 1. Plants were rated at 10 days after infestation (DAI) for the number of cut plants. The percent stand reduction due to plant cutting was calculated by dividing the number of cut plants into the number of plants present at infestation.

black cutworm larvae [4] = experiment: Example 4: stand reduction of corn by black cutworm in three soil types; type: in vivo; details: seed treatment 250 gm AI/100 kg of seed
Description: as §1, with “from” for “from the”, “level was 250” for “levels were 88, 185 and 381”, “1.” for “1. Again,”, “and” for “either in-furrow or”, “The untreated seed—with and without tefluthrin banding—and the treated seed were planted in three different soil types. […] The” for “The”
as §2

In the case of `C#CCN1CC(=O)N(COC(=O)[C@@H]2C(C=C(C)C)C2(C)C)C1=O` (mixture of isomers) [Imiprothrin], the Vapor pressure ([1]; 25° C.) is listed as 1.8 E-3 mPa.

For `CC(C)[C@@H](Nc1ccc(C(F)(F)F)cc1Cl)C(=O)OC(C#N)c1cccc(Oc2ccccc2)c1` (mixture of isomers) [Tau-fluvalinate, (RS)-alpha-cyano-3-phenoxybenzyl(R)-2-[2-chloro-4-(trifluoromethyl)anilino]-3-methylbutanoate], the Water solubility ([2]; 20° C.) is listed as 1.03 ppb (20° C.) and the Vapor pressure ([1]; temperature not given) is listed as 9 E-8 mPa.

For `CC1(C)C(/C=C(\Cl)C(F)(F)F)C1C(=O)OC(C#N)c1cccc(Oc2ccccc2)c1` (racemic) [Cyhalothrin, [1α, 3α(Z)]-(±)-cyano-(3-phenoxyphenyl)methyl 3-(2-chloro-3,3,3-trifluoro-1-propenyl)-2,2-cimethylcyclopropanecarboxylate], the Water solubility ([2]; 20° C.) is given as 0.004 ppb (20° C.) and the Vapor pressure ([1]; temperature not given) is given as 0.001 mPa.

For `CC1(C)C(C=C(Cl)Cl)C1C(=O)OC(C#N)c1cccc(Oc2ccccc2)c1` (racemic) [Cypermethrin, (±) alpha-cyano-(3-phenoxyphenyl)methyl(+)-cis,trans-3-(2,2-dichloroethenyl)-2,2-dimethyl-cyclopropane carboxylate], the Vapor pressure ([1]; temperature not given) is given as 2.3 E-4 mPa.

For `CC(C)[C@H](C(=O)OC(C#N)c1cccc(Oc2ccccc2)c1)c1ccc(OC(F)F)cc1` (mixture of isomers) [Flucythrinate, (±)-cyano (3-phenoxyphenyl)methyl (±)-4-(difluoromethoxy)-alpha-(1-methylethyl) benzeneacetate], the Water solubility ([2]; 21° C.) is given as 0.5 mg/l (21° C.) and the Vapor pressure ([1]; 25° C.) is given as 0.0012 mPa.

For `CC1(C)C(C=C(Cl)Cl)C1C(=O)OC(C#N)c1cccc(Oc2ccccc2)c1` (racemic) [Zeta-cypermethrin, S-cyano (3-phenoxyphenyl)methyl (±) cis/trans 3-(2,2-dichloroethenyl) 2,2 dimethylcyclopropane carboxylate], the Vapor pressure ([1]; temperature not given) is listed as 2.5 E-4 mPa.

For `CC1(C)[C@H](C(=O)O[C@H](C#N)c2cccc(Oc3ccccc3)c2)[C@@H]1/C=C\C(=O)OC(C(F)(F)F)C(F)(F)F` [Acrinathrin, (S)-alpha-cyano-3-phenoxybenzyl(Z)-(IR-cis)-2,2-dimethyl-3-[2-(2,2,2-trifluoro-trifluoromethyl-ethoxycarbonyl)vinyl]cyclopropane carboxylate], the Vapor pressure ([1]; temperature not given) is listed as 4.4 E-5 mPa.

For `C=CCC1=C(C)C(OC(=O)C2C(C=C(C)C)C2(C)C)CC1=O` [Allethrin, (RS)-3-allyl-2-methyl-4-oxcyclopent-2-enyl-(1A,3R; 1R,3S)-2,2-dimethyl-3-(2-methylprop-1-enyl)cyclopropane carboxylate], the Water solubility ([2]; in words) is given as “practically insol” and the Vapor pressure ([1]; 21° C.) is given as 0.16 mPa.

In the case of `CC1(C)C(C=C(Cl)Cl)C1C(=O)OC(C#N)c1cccc(Oc2ccccc2)c1` (stereo not drawn) [Alpha cypermethrin, (IR cis) S and (IS cis) R enantiomer isomer pair of alpha-cyano-3-phenoxybenzyl-3-(2,2dichlorovinyl)-2,2-dimethylcyclopropane carboxylate], the Vapor pressure ([1]; temperature not given) is listed as 2.3 E-2 mPa.

In the case of `CC1(C)C(C=C(Cl)Cl)C1C(=O)OC(C#N)c1ccc(F)c(Oc2ccccc2)c1` (stereo not drawn) [Beta cyfluthrin], the Water solubility ([2]; 25° C.) is given as 1.2-2.1 μg/l (25° C.) and the Vapor pressure ([1]; no unit, temperature not given) is given as 1.4 to 8.5 E-5.

For `CC1(C)[C@H](C=C(Cl)Cl)[C@H]1C(=O)O[C@@H](C#N)c1cccc(Oc2ccccc2)c1` [Beta-cypermethrin], the Vapor pressure ([1]; temperature not given) is listed as 1.8 E-4 mPa.

For `C=CCC1=C(C)C(OC(=O)[C@@H]2[C@@H](C=C(C)C)C2(C)C)CC1=O` (stereo partly shown) [Bioallethrin], the Water solubility ([2]; temperature not given) is listed as 4.6 mg/L and the Vapor pressure ([1]; 25° C.) is listed as 43.9 mPa.

In the case of `CC(C)=C[C@@H]1[C@@H](C(=O)OCc2coc(Cc3ccccc3)c2)C1(C)C` [Bioresmethrin, (1R-trans)-[5-(phenylmethyl)-3-furanyl]methyl 2,2-dimethyl-3-(2-methyl-1-propenyl)cyclopropanecarboxylate], the Water solubility ([2]; temperature not given) is given as <0.3 mg/L, the Vapor pressure ([1]; (Tech.)) is given as 18.6 mPa and the Vapor pressure ([1]; (d-resmethrin)) is given as 0.45 mPa.

In the case of `CCOc1ccc(C2(C(=O)OC(C#N)c3cccc(Oc4ccccc4)c3)CC2(Cl)Cl)cc1` (stereo not shown) [Cycloprothrin, cyano-(3-phenoxyphenyl)methyl 2,2-dichloro-1-(4-ethoxyphenyl)cyclopropane carboxylate], the Water solubility ([2]; 25° C.) is listed as 0.091 mg/l (25° C.) and the Vapor pressure ([1]; 20° C.) is listed as 2.13 E-3 mPa.

In the case of `CC1(C)C(C=C(Cl)Cl)C1C(=O)OC(C#N)c1ccc(F)c(Oc2ccccc2)c1` (stereo not shown) [Cyfluthrin, cyano(4-fluoro-3-phenoxyphenyl)methyl 3-(2,2-dichloroethenyl)-2,2-dimethyl-cyclopropanedarboxylate], the Water solubility ([2]; 25° C.) is given as 2-4.3 μg/l (25° C.).

For `CC(C)=CC1C(C(=O)OC(C#N)c2cccc(Oc3ccccc3)c2)C1(C)C` (stereo not shown) [Cyphenothrin], the Water solubility ([2]; 25° C.) is given as <10 μg/l (25° C.) and the Vapor pressure ([1]; 20° C.) is given as 0.12 mPa.

In the case of `CC1(C)[C@H](C(=O)O[C@H](C#N)c2cccc(Oc3ccccc3)c2)[C@@H]1C=C(Br)Br` [Deltamethrin, (s)-alpha-cyano-3-phenoxybenzyl (IR,3R)-3-(2,2-dibromovinyl)-2,2-dimethyl cyclopropanecarboxylate], the Vapor pressure ([1]; temperature not given) is listed as 1.24 E-5 mPa.

For `C#CC(OC(=O)C1C(C=C(C)C)C1(C)C)/C(C)=C/CC` (stereo not shown) [Empenthrin], the Vapor pressure ([1]; 23.6° C.) is listed as 14 mPa.

In the case of `CC(C)[C@H](C(=O)O[C@H](C#N)c1cccc(Oc2ccccc2)c1)c1ccc(Cl)cc1` [Esfenvalerate, (S)-cyano (3-phenoxyphenyl) methyl (S)-4-chloro-alpha-(1-methylethyl)benzeneacetate], the Water solubility ([2]; temperature not given) is listed as 0.002 mg/L and the Vapor pressure ([1]; temperature not given) is listed as 2 E-4 mPa.

In the case of `CC1(C)C(C(=O)OC(C#N)c2cccc(Oc3ccccc3)c2)C1(C)C` (stereo not drawn) [Fenpropathrin, alpha-cyano-3-phenoxybenzyl 2,2,3,3,-tetramethyl cyclopropoanecarboxylate], the Water solubility ([2]; 25° C.) is listed as 14.1 μg/l (25° C.) and the Vapor pressure ([1]; temperature not given) is listed as 0.73 mPa.

For `CC(C)C(C(=O)OC(C#N)c1cccc(Oc2ccccc2)c1)c1ccc(Cl)cc1` (stereo not drawn) [Fenvalerate, (s)-cyano(3-phenoxyphenyl)methyl 4-chloro alpha (1-methylethyl)benzeneacetate], the Water solubility ([2]; temperature not given) is given as <0.01 mg/L and the Vapor pressure ([1]; 20° C.) is given as 1.92 E-2 mPa.

For `CC1(C)[C@H](C(=O)O[C@H](C#N)c2cccc(Oc3ccccc3)c2)[C@@H]1/C=C(\Cl)C(F)(F)F` [Lambda cyhalothrin, [1 alpha (s), 3 alpha(z)]-cyano(3-phenoxyphenyl)methyl-3-(2-chloro-3,3,3-trifluoro-1-propenyl)-2,2-dimethylcyclopropane carboxylate], the “STAND REDUCTION (%, 10 days after infestation)” value (black cutworm larvae [3]; seed treatment 88 gm AI/100 kg of seed) was 19.4%, the “STAND REDUCTION (%, 10 days after infestation)” value (black cutworm larvae [3]; seed treatment 381 gm AI/100 kg of seed) was “total protection” and the “STAND REDUCTION (%, 10 days after infestation)” value (black cutworm larvae [4]; SOIL TYPE I) was 80.1%. The “STAND REDUCTION (%, 10 days after infestation)” value (black cutworm larvae [4]; SOIL TYPE II) was 39.8%, the “STAND REDUCTION (%, 10 days after infestation)” value (black cutworm larvae [4]; SOIL TYPE III) was 72.4% and the Vapor pressure ([1]; temperature not given) was 2 E-4 mPa.

For `CC1(C)C(C=C(Cl)Cl)C1C(=O)OCc1cccc(Oc2ccccc2)c1` (stereo not drawn) [Permethrin, (3-phenoxyphenyl)-methyl(+)cis-trans-3-(2,2-dichoroethenyl)-2,2-dimethylcyclopropanecarboxylate], the Vapor pressure ([1]; temperature not given) is given as 0.07 mPa.

In the case of `CC(C)=CC1C(C(=O)OCc2cccc(Oc3ccccc3)c2)C1(C)C` (stereo not drawn) [Phenothrin, 3-phenoxybenzyl-d,l-cistrans 2,2-dimethyl-3-(2-methylpropenyl)cyclopropane carboxylate], the Water solubility ([2]; 25° C.) is given as <9.7 μg/l (25° C.) and the Vapor pressure ([1]; 21.4° C.) is given as 1.9 E-2 mPa.

For `C#CCC1=C(C)C(OC(=O)C2C(C=C(C)C)C2(C)C)CC1=O` (stereo not shown) [Prallethrin], the Vapor pressure ([1]; 23.1° C.) is given as <0.013 mPa.

For `CC(C)=CC1C(C(=O)OCN2C(=O)C3=C(CCCC3)C2=O)C1(C)C` (stereo not drawn) [Tetramethrin, 3,4,5,6-tetra hydro-phthalimidomethyl-(IRS)-cis-trans-chrysanthemate], the Vapor pressure ([1]; 30° C.) is given as 0.944 mPa.

In the case of `CC1(C)[C@H](C=C(Cl)Cl)[C@H]1C(=O)O[C@H](C#N)c1cccc(Oc2ccccc2)c1` [Theta cypermethrin], the Vapor pressure ([1]; temperature not given) is listed as 1.8 E-4 mPa.

In the case of `CC1(C)[C@H](C(=O)O[C@H](C#N)c2cccc(Oc3ccccc3)c2)[C@@H]1C(Br)C(Br)(Br)Br` (stereo partly shown) [Tralomethrin], the Vapor pressure ([1]; 25° C.) is given as 4.6 E-6 mPa.

For `CC1(C)[C@H](C=C(Cl)Cl)[C@H]1C(=O)OCc1c(F)c(F)cc(F)c1F` [Transfluthrin], the Vapor pressure ([1]; temperature not given) is given as 0.4 mPa.

For `CC(C)C(C(=O)OC(C#N)c1cccc(Oc2ccc(Br)cc2)c1)c1ccc(OC(F)F)cc1` (stereo not shown) [ZXI8901], the Vapor pressure ([1]; 20° C.) is listed as 1.6 E-4 mPa.
